# Measurements reported in US6737383B1, “Herbicidal oxadiazolidines” (priority 1999, dated 2004).
# Experiments:
# sugar beet = assay: Test B pre/postemergence sugar beet; type: in vivo, Beta vulgaris
# Outline: (§1)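 Test chemicals in a non-phytotoxic solvent mixture with surfactant were sprayed preemergence onto planted seeds and postemergence onto plants 2 to 18 cm tall (1- to 4-leaf stage). After twelve to sixteen days in a greenhouse, injury was visually rated against untreated controls from 0 (no effect) to 10 (complete control).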
# purple nutsedge = assay: Test B pre/postemergence purple nutsedge; type: in vivo, Cyperus rotundus
# Outline: as §1
# wheat = assay: Test B pre/postemergence wheat; type: in vivo, Triticum aestivum
# Outline: as §1
# rape = assay: Test B pre/postemergence rape; type: in vivo, Brassica napus
# Outline: as §1
# morningglory = assay: Test B pre/postemergence morningglory; type: in vivo, Ipomoea hederacea
# Outline: as §1
# wild oat = assay: Test B pre/postemergence wild oat; type: in vivo, Avena fatua
# Outline: as §1
# cocklebur = assay: Test B pre/postemergence cocklebur; type: in vivo, Xanthium strumarium
# Outline: as §1
# blackgrass = assay: Test B pre/postemergence blackgrass; type: in vivo, Alopecurus myosuroides
# Outline: as §1
# surinam grass = assay: Test B pre/postemergence surinam grass; type: in vivo, Brachiaria decumbens
# Outline: as §1
# velvetleaf = assay: Test B pre/postemergence velvetleaf; type: in vivo, Abutilon theophrasti
# Outline: as §1
# corn = assay: Test B pre/postemergence corn; type: in vivo, Zea mays
# Outline: as §1
# giant foxtail = assay: Test B pre/postemergence giant foxtail; type: in vivo, Setaria faberii
# Outline: as §1
# pigweed = assay: Test B pre/postemergence pigweed; type: in vivo, Amaranthus retroflexus
# Outline: as §1
# soybean = assay: Test B pre/postemergence soybean; type: in vivo, Glycine max
# Outline: as §1
# bedstraw = assay: Test B pre/postemergence bedstraw; type: in vivo, Galium aparine
# Outline: as §1
# crabgrass = assay: Test B pre/postemergence crabgrass; type: in vivo, Digitaria sanguinalis
# Outline: as §1
# [1] = Postemergence, Rate 62 g/ha, scale 0 to 10, 0 is no effect, 10 is complete control
# [2] = Postemergence, Rate 125 g/ha, scale of 0 to 10 where 0 is no effect and 10 is complete control
# [3] = Preemergence, Rate 125 g/ha, scale of 0 to 10 where 0 is no effect and 10 is complete control
# [4] = Preemergence, Rate 250 g/ha, scale 0 (no effect) to 10 (complete control)
# [5] = Rate 62 g/ha, Preemergence, scale 0 to 10
# [6] = Rate 250 g/ha, Postemergence, scale 0 to 10, 0 is no effect, 10 is complete control
# [7] = Rate 500 g/ha, Postemergence, scale 0 to 10, 0 is no effect, 10 is complete control
# [8] = Rate 500 g/ha, Preemergence, scale 0 to 10 (0 no effect, 10 complete control)
smiles,measurement,setting,value
CC(C)N(C(=O)n1oc(=O)n(CCCCl)c1=O)c1ccccc1 [Compound 750],"Plant response rating, Sugarbeets",sugar beet; [1],0
same,Sugarbeets plant response rating,sugar beet; [2],3
same,"Plant response rating, Sugarbeets",sugar beet; [3],3
same,Sugarbeets plant response rating,sugar beet; [4],5
same,Sugarbeets plant response rating,sugar beet; [5],1
same,Sugarbeets plant response rating,sugar beet; [6],3
same,Sugarbeets plant response rating,sugar beet; [7],6
same,"Plant response rating, Nutsedge",purple nutsedge; [1],0
same,Nutsedge plant response rating,purple nutsedge; [2],0
same,"Plant response rating, Nutsedge",purple nutsedge; [3],0
same,Nutsedge plant response rating,purple nutsedge; [4],7
same,Nutsedge plant response rating,purple nutsedge; [5],0
same,Nutsedge plant response rating,purple nutsedge; [6],7
same,Nutsedge plant response rating,purple nutsedge; [8],9
same,"Plant response rating, Wheat",wheat; [1],0
same,Wheat plant response rating,wheat; [2],0
same,"Plant response rating, Wheat",wheat; [3],4
same,Wheat plant response rating,wheat; [4],5
same,Wheat plant response rating,wheat; [5],2
same,Wheat plant response rating,wheat; [6],2
same,Wheat plant response rating,wheat; [7],2
same,"Plant response rating, Rape",rape; [1],0
same,Rape plant response rating,rape; [2],4
same,"Plant response rating, Rape",rape; [3],0
same,Rape plant response rating,rape; [4],8
same,Rape plant response rating,rape; [5],0
same,Rape plant response rating,rape; [6],6
same,Rape plant response rating,rape; [7],7
same,"Plant response rating, Morningglory",morningglory; [1],3
same,Morningglory plant response rating,morningglory; [2],3
same,"Plant response rating, Morningglory",morningglory; [3],0
same,Morningglory plant response rating,morningglory; [4],6
same,Morningglory plant response rating,morningglory; [5],0
same,Morningglory plant response rating,morningglory; [6],8
same,Morningglory plant response rating,morningglory; [7],10
same,Morningglory plant response rating,morningglory; [8],6
same,"Plant response rating, Wild oats",wild oat; [1],0
same,Wild oats plant response rating,wild oat; [2],0
same,"Plant response rating, Wild oats",wild oat; [3],5
same,Wild oats plant response rating,wild oat; [4],7
same,Wild oats plant response rating,wild oat; [5],0
same,Wild oats plant response rating,wild oat; [6],0
same,Wild oats plant response rating,wild oat; [7],0
same,"Plant response rating, Cocklebur",cocklebur; [1],0
same,Cocklebur plant response rating,cocklebur; [2],0
same,"Plant response rating, Cocklebur",cocklebur; [3],0
same,Cocklebur plant response rating,cocklebur; [4],0
same,Cocklebur plant response rating,cocklebur; [5],0
same,Cocklebur plant response rating,cocklebur; [6],1
same,Cocklebur plant response rating,cocklebur; [7],3
same,Cocklebur plant response rating,cocklebur; [8],0
same,"Plant response rating, Blackgrass",blackgrass; [1],4
same,Blackgrass plant response rating,blackgrass; [2],7
same,"Plant response rating, Blackgrass",blackgrass; [3],8
same,Blackgrass plant response rating,blackgrass; [4],8
same,Blackgrass plant response rating,blackgrass; [5],7
same,Blackgrass plant response rating,blackgrass; [6],7
same,Blackgrass plant response rating,blackgrass; [7],8
same,"Plant response rating, B. signalgrass",surinam grass; [1],0
same,B. signalgrass plant response rating,surinam grass; [2],2
same,B. signalgrass plant response rating,"surinam grass; Preemergence, Rate 62 g/ha, scale of 0 to 10 where 0 is no effect and 10 is complete control",5
same,"Plant response rating, B. signalgrass",surinam grass; [3],10
same,B. signalgrass plant response rating,surinam grass; [4],8
same,B. signalgrass plant response rating,surinam grass; [6],6
same,B. signalgrass plant response rating,surinam grass; [7],6
same,"Plant response rating, Velvetleaf",velvetleaf; [1],0
same,Velvetleaf plant response rating,velvetleaf; [2],3
same,"Plant response rating, Velvetleaf",velvetleaf; [3],0
same,Velvetleaf plant response rating,velvetleaf; [4],7
same,Velvetleaf plant response rating,velvetleaf; [5],0
same,Velvetleaf plant response rating,velvetleaf; [6],5
same,Velvetleaf plant response rating,velvetleaf; [7],6
same,Velvetleaf plant response rating,velvetleaf; [8],7
same,"Plant response rating, Corn",corn; [1],0
same,Corn plant response rating,corn; [2],0
same,"Plant response rating, Corn",corn; [3],3
same,Corn plant response rating,corn; [5],0
same,Corn plant response rating,corn; [6],0
same,Corn plant response rating,corn; [7],5
same,Corn plant response rating,corn; [8],6
same,"Plant response rating, Giant foxtail",giant foxtail; [1],9
same,Giant foxtail plant response rating,giant foxtail; [2],8
same,"Plant response rating, Giant foxtail",giant foxtail; [3],10
same,Giant foxtail plant response rating,giant foxtail; [4],10
same,Giant foxtail plant response rating,giant foxtail; [5],9
same,Giant foxtail plant response rating,giant foxtail; [6],8
same,Giant foxtail plant response rating,giant foxtail; [7],8
same,Giant foxtail plant response rating,giant foxtail; [8],10
same,"Plant response rating, Redroot pigweed",pigweed; [1],4
same,Redroot pigweed plant response rating,pigweed; [2],7
same,"Plant response rating, Redroot pigweed",pigweed; [3],9
same,Redroot pigweed plant response rating,pigweed; [4],10
same,Redroot pigweed plant response rating,pigweed; [5],7
same,Redroot pigweed plant response rating,pigweed; [6],7
same,Redroot pigweed plant response rating,pigweed; [7],7
same,"Plant response rating, Soybean",soybean; [1],2
same,Soybean plant response rating,soybean; [2],6
same,"Plant response rating, Soybean",soybean; [3],0
same,Soybean plant response rating,soybean; [4],5
same,Soybean plant response rating,soybean; [5],0
same,Soybean plant response rating,soybean; [6],7
same,Soybean plant response rating,soybean; [7],7
same,Soybean plant response rating,soybean; [8],5
same,"Plant response rating, Bedstraw",bedstraw; [1],5
same,"Plant response rating, Bedstraw",bedstraw; [3],0
same,Bedstraw plant response rating,bedstraw; [4],0
same,Bedstraw plant response rating,bedstraw; [5],0
same,Bedstraw plant response rating,bedstraw; [6],7
same,Bedstraw plant response rating,bedstraw; [7],10
same,"Plant response rating, Crabgrass",crabgrass; [1],7
same,Crabgrass plant response rating,crabgrass; [2],9
same,"Plant response rating, Crabgrass",crabgrass; [3],9
same,Crabgrass plant response rating,crabgrass; [4],9
same,Crabgrass plant response rating,crabgrass; [5],9
same,Crabgrass plant response rating,crabgrass; [6],9
same,Crabgrass plant response rating,crabgrass; [8],10
